According to US20090306454A1, “Devices and Methods for Stimulation of Tissue” (Stanford University, priority 2005, published 2009):

Experiments:
[1] = Chemical stability of Ach at body temperature (37 C, HPLC with UV detection); type: physicochemical
Text: To determine the stability of acetylcholine at 37 C to help guide the reservoir sizes and locations, aliquots of reference acetylcholine and standard strength Miochol-E (acetylcholine, injectable, Novartis Pharmaceuticals) were stored in sterile glass containers at 37 C.

[2] = system: right denervated orbicularis oculi; test: Synergistic action of electric stimulation and Ach on denervated orbicularis oculi; type: in vivo, rabbit
Text: A possible synergistic interaction between Ach and electric stimulation were observed as follows. After having injected an amount of Ach into the right denervated orbicularis oculi that produced no reaction, electric stimulation was delivered to the muscle at an intensity previously unable to produce a definitive blink.
In a subsequent test session, the right denervated orbicularis was first tested using electrical stimulation alone (prior to any Ach testing) as shown in Table III.
After the delivery of 200 ul of Ach to the right denervated orbicularis oculi, the right orbicularis oculi was allowed to relax to baseline position prior to Ach stimulation. No saline flush was performed. Electric stimulation was given at 10 msec phase duration at 3 volts.

[3] = system: denervated orbicularis oculi; test: Ach stimulation in the denervated rabbit model (Miochol-E injected into orbicularis oculi pocket); type: in vivo; design: key to eyelid response to Ach delivered: N = no response; C = complete eyelid closure
Text: a) Two white New Zealand female rabbits were anesthetized by using 3-5% isofluorane inhalation and ketamine/xylazine and monitored by Heska monitor (SP02, heart rate, and rectal temperature). b) A pre-auricular incision was made the facial nerve was surgically sectioned and a five millimeter section was eliminated.
To determine the response of denervated orbicularis oculi in rabbits to stimulation with varying dosages of Miochol-E (acetylcholine chloride, injectable, Novartis pharmaceuticals) the FDA approved Miochol-E in 10 mg/ml, or 0.055M Ach (molar mass of 182 g/mol) was used to test the effects in the denervated rabbit model.
Methods: The rabbit was sedated in standard fashion, an eyelid incision was made 5 mm from the lash line and the Miochol E was injected into the orbicularis oculi pocket. Retesting was done at six weeks.

[4] = Full Strength Ach (10 mg/ml), 200 μl, denervated rabbit orbicularis oculi

SMILES: CC(=O)OCC[N+](C)(C)C.[Cl-] [Ach, acetylcholine chloride]
- stability at body temperature ([1]; 14 days in sterile glass at 37 C): stable
- Peak Area (Ach concentration by HPLC-UV) ([1]; after storage at 37 C for 14 days in sterile glass): 56494
- eyelid response to electric stimulation after Ach delivery ([2]; after 200 ul of Ach, muscle relaxed to baseline, no saline flush, electric stimulation 10 msec phase duration at 3 volts): Reproducible complete closure blinks
- eyelid reaction to injected Ach alone ([2]; an amount of Ach injected into the right denervated orbicularis oculi, before electric stimulation): no reaction
- eyelid response to electric stimulation after Ach injection ([2]; electric stimulation at an intensity previously unable to produce a definitive blink, after Ach amount that produced no reaction, over three stimulated partial blink motions): closed tightly for four minutes
- muscle contraction / eyelid closure (conclusion from experiments) ([3]; Ach delivered to the orbicularis in a diffuse fashion, at certain concentrations and volumes): tonic, prolonged closure
- eyelid response to Ach delivered ([3]; Ach dilution 1:1, 0.5 μl, denervated rabbit orbicularis oculi): N
- eyelid response to Ach delivered ([3]; Ach dilution 1:1, 1 μl, denervated rabbit orbicularis oculi): N
- eyelid response to Ach delivered ([3]; Ach dilution 1:1, 5 μl, denervated rabbit orbicularis oculi): N
- eyelid response to Ach delivered ([3]; Ach dilution 1:1, 10 μl, denervated rabbit orbicularis oculi): N
- eyelid response to Ach delivered ([3]; Ach dilution 1:1, 25 μl, denervated rabbit orbicularis oculi): N
- eyelid response to Ach delivered ([3]; Ach dilution 1:1, 50 μl, denervated rabbit orbicularis oculi): N
- eyelid response to Ach delivered ([3]; Ach dilution 1:1, 100 μl, denervated rabbit orbicularis oculi): N
- eyelid response to Ach delivered ([3]; Ach dilution 1:2, 0.5 μl, denervated rabbit orbicularis oculi): N
- eyelid response to Ach delivered ([3]; Ach dilution 1:2, 1 μl, denervated rabbit orbicularis oculi): N
- eyelid response to Ach delivered ([3]; Ach dilution 1:2, 5 μl, denervated rabbit orbicularis oculi): N
- eyelid response to Ach delivered ([3]; Ach dilution 1:2, 10 μl, denervated rabbit orbicularis oculi): N
- eyelid response to Ach delivered ([3]; Ach dilution 1:2, 25 μl, denervated rabbit orbicularis oculi): N
- eyelid response to Ach delivered ([3]; Ach dilution 1:2, 50 μl, denervated rabbit orbicularis oculi): N
- eyelid response to Ach delivered ([3]; Ach dilution 1:2, 100 μl, denervated rabbit orbicularis oculi): N
- eyelid response to Ach delivered ([3]; Ach dilution 1:5, 0.5 μl, denervated rabbit orbicularis oculi): N
- eyelid response to Ach delivered ([3]; Ach dilution 1:5, 1 μl, denervated rabbit orbicularis oculi): N
- eyelid response to Ach delivered ([3]; Ach dilution 1:5, 5 μl, denervated rabbit orbicularis oculi): N
- eyelid response to Ach delivered ([3]; Ach dilution 1:5, 10 μl, denervated rabbit orbicularis oculi): N
- eyelid response to Ach delivered ([3]; Ach dilution 1:5, 25 μl, denervated rabbit orbicularis oculi): N
- eyelid response to Ach delivered ([3]; Ach dilution 1:5, 50 μl, denervated rabbit orbicularis oculi): N
- eyelid response to Ach delivered ([3]; Ach dilution 1:5, 100 μl, denervated rabbit orbicularis oculi): N
- eyelid response to Ach delivered ([3]; Ach dilution 1:10, 0.5 μl, denervated rabbit orbicularis oculi): N
- eyelid response to Ach delivered ([3]; Ach dilution 1:10, 1 μl, denervated rabbit orbicularis oculi): N
- eyelid response to Ach delivered ([3]; Ach dilution 1:10, 5 μl, denervated rabbit orbicularis oculi): N
- eyelid response to Ach delivered ([3]; Ach dilution 1:10, 10 μl, denervated rabbit orbicularis oculi): N
- eyelid response to Ach delivered ([3]; Ach dilution 1:10, 25 μl, denervated rabbit orbicularis oculi): N
- eyelid response to Ach delivered ([3]; Ach dilution 1:10, 50 μl, denervated rabbit orbicularis oculi): N
- eyelid response to Ach delivered ([3]; Ach dilution 1:10, 100 μl, denervated rabbit orbicularis oculi): N
- eyelid response to Ach delivered ([3]; Full Strength Ach (10 mg/ml), 0.5 μl, denervated rabbit orbicularis oculi): N
- eyelid response to Ach delivered ([3]; Full Strength Ach (10 mg/ml), 1 μl, denervated rabbit orbicularis oculi): N
- eyelid response to Ach delivered ([3]; Full Strength Ach (10 mg/ml), 5 μl, denervated rabbit orbicularis oculi): N
- eyelid response to Ach delivered ([3]; Full Strength Ach (10 mg/ml), 10 μl, denervated rabbit orbicularis oculi): N
- eyelid response to Ach delivered ([3]; Full Strength Ach (10 mg/ml), 25 μl, denervated rabbit orbicularis oculi): N
- eyelid response to Ach delivered ([3]; Full Strength Ach (10 mg/ml), 50 μl, denervated rabbit orbicularis oculi): N
- eyelid response to Ach delivered ([3]; Full Strength Ach (10 mg/ml), 100 μl, denervated rabbit orbicularis oculi): N
- duration of complete eyelid closure [3, 4]: 1 min
- eyelid response to Ach delivered [3, 4]: C
